In ChEMBL document CHEMBL5579859, “Discovery of novel indazole derivatives as second-generation TRK inhibitors” (Eur J Med Chem, 2024):
pIC50: −log10 of the molar value.

Assays:
[1] = biological target: High affinity nerve growth factor receptor (Homo sapiens, UniProt P04629, G595R); assay: Inhibition of TRKA G595R mutant (unknown origin) using TK as substrate incubated for 30 mins in presence of ATP by HTRF assay
[2] = biological target: NT-3 growth factor receptor (Homo sapiens, UniProt Q16288); assay: Inhibition of TRKC (unknown origin) using TK as substrate incubated for 40 mins in presence of ATP by HTRF assay
NT-3 growth factor receptor, sequence (Q16288 whole entry): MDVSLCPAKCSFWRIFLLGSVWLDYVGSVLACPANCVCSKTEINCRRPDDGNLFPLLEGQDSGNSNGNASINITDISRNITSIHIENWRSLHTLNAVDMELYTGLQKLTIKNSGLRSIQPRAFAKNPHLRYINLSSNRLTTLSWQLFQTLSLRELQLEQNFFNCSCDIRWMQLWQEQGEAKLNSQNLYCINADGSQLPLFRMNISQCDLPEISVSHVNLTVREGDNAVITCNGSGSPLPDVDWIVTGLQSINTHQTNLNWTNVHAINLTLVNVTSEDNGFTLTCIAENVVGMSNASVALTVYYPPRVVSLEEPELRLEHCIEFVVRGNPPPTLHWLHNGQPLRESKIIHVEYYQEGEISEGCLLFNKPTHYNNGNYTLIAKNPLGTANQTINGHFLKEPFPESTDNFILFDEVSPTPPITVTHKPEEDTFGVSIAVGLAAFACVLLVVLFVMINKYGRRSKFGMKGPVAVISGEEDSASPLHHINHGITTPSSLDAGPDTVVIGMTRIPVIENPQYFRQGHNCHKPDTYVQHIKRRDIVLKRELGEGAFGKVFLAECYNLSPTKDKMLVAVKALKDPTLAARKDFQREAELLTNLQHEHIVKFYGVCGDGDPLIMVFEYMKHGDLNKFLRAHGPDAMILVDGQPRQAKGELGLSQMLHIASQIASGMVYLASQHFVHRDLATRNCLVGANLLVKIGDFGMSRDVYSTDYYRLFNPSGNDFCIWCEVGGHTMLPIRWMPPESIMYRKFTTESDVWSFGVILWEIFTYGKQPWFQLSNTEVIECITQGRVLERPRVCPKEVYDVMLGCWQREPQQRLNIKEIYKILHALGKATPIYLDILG

[3] = biological target: High affinity nerve growth factor receptor (Homo sapiens, UniProt P04629); assay: Inhibition of TRKA (unknown origin) using TK as substrate incubated for 30 mins in presence of ATP by HTRF assay
High affinity nerve growth factor receptor (Homo sapiens, UniProt P04629), sequence (P04629 whole entry): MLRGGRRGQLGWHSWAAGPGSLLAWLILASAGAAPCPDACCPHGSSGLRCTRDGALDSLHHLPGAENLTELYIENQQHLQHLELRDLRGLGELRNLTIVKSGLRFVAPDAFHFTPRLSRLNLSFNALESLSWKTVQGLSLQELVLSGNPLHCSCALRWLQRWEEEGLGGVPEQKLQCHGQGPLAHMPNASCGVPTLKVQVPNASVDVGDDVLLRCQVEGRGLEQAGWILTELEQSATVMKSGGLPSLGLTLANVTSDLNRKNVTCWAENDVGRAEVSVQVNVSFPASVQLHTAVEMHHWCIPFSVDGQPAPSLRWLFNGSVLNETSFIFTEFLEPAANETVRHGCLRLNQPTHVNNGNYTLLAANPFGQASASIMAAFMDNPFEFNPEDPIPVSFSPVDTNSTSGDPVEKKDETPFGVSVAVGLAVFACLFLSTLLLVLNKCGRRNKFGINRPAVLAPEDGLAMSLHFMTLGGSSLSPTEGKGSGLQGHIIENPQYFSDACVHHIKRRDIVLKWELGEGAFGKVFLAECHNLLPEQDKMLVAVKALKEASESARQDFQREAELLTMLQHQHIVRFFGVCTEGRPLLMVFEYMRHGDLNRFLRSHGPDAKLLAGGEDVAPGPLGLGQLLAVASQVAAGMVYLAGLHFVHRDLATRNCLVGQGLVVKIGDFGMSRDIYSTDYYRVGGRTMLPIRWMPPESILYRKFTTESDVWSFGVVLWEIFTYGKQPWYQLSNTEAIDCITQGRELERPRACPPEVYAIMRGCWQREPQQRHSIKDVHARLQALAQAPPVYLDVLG

[4] = biological target: High affinity nerve growth factor receptor (Homo sapiens, UniProt P04629, G667C); assay: Inhibition of TRKA G667C mutant (unknown origin) using TK as substrate incubated for 30 mins in presence of ATP by HTRF assay
High affinity nerve growth factor receptor (Homo sapiens, UniProt P04629, G667C), sequence (P04629 33-796 G667C limits assumed): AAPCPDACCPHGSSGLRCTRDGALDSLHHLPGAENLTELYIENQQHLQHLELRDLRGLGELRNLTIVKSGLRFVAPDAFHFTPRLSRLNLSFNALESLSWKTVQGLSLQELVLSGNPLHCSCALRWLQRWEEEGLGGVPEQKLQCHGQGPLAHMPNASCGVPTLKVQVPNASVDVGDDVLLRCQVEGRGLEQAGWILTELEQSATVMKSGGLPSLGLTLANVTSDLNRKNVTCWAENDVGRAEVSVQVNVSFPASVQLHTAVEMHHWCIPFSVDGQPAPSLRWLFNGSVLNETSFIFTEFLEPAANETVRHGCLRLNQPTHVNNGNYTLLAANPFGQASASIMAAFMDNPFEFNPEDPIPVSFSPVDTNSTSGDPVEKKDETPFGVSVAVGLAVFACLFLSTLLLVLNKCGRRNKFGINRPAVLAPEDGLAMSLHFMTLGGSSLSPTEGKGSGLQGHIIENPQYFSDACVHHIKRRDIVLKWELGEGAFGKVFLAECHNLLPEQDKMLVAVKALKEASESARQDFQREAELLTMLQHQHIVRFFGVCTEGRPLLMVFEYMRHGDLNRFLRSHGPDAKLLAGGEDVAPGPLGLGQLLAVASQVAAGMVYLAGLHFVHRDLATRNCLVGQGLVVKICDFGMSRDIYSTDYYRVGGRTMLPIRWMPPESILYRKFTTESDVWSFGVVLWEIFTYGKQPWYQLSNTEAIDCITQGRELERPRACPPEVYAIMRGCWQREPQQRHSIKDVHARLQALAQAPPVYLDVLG

[5] = biological target: High affinity nerve growth factor receptor (Homo sapiens, UniProt P04629, F589L); assay: Inhibition of TRKA F589L mutant (unknown origin) using TK as substrate incubated for 30 mins in presence of ATP by HTRF assay
High affinity nerve growth factor receptor (Homo sapiens, UniProt P04629, F589L), sequence (P04629 33-796 F589L limits assumed): as the sequence (P04629 33-796 G667C limits assumed) above, with F557L, C635G counted along it

MCF7 = assay: cells; conditions: Homo sapiens, MCF7, 72 h
Description: Antiproliferative activity against human MCF7 cells incubated for 72 hrs by CCK8 assay

BaF3 [6] = assay: cells; conditions: Mus musculus, BaF3, 72 h
KM12 = assay: cells; conditions: Homo sapiens, KM12, 72 h
Description: Antiproliferative activity against human KM12 cells incubated for 72 hrs by CCK8 assay

BaF3 [7] = assay: cells; conditions: Mus musculus, BaF3, 72 h; remark: listed apart in the source
Description: Antiproliferative activity against mouse BaF3 cells expressing TRKA G595R mutant incubated for 72 hrs by CCK8 assay

High affinity nerve growth factor receptor (Homo sapiens, UniProt P04629, G595R), sequence (P04629 33-796 G595R limits assumed): as the sequence (P04629 33-796 G667C limits assumed) above, with G563R, C635G counted along it

COc1ccc(F)cc1CNc1ccc2[nH]nc(C#N)c2c1
pIC50 [1]: 6.77

N#Cc1n[nH]c2ccc(NCc3cc(F)ccc3OCC(F)F)cc12
pIC50 [2]: 8.52 | pIC50 [3]: 7.49 | pIC50 [1]: 7.52 | pIC50 [4]: 5.92 | pIC50 [5]: 8.00

COc1ccc(F)cc1CNc1ccc2[nH]nc(C(=O)NO)c2c1
pIC50 [1]: 5.32

CNC(=O)c1n[nH]c2ccc(NCc3cc(F)ccc3OCCO)cc12
pIC50 [1]: 5.93

CNC(=O)c1n[nH]c2ccc(NCc3cc(F)ccc3OC3CCOCC3)cc12
pIC50 [1]: 6.54

COc1ccc(F)cc1CNc1ccc2[nH]nc(-n3cc(F)cn3)c2c1
pIC50 [1]: 6.46

CNC(=O)c1n[nH]c2ccc(NCc3cc(F)ccc3P(C)(C)=O)cc12
pIC50 [1]: 5.25

CNC(=O)c1n[nH]c2ccc(NCc3cc(F)ccc3OC(C)C)cc12
pIC50 [1]: 6.62

CNC(=O)c1n[nH]c2ccc(NCc3cc(F)ccc3OCC(F)(F)F)cc12
pIC50 [1]: 6.85

CNC(=O)c1n[nH]c2ccc(NCc3cc(F)ccc3OC3CCOC3)cc12 (stereo unspecified)
pIC50 [1]: 6.68

COc1ccc(F)cc1CNc1ccc2[nH]nc(-n3cnc(C(F)(F)F)c3)c2c1
pIC50 [1]: 6.24

COc1ccc(F)cc1CNc1ccc2[nH]nc(C(N)=O)c2c1
pIC50 [1]: 6.17

COc1ccc(F)cc1CNc1ccc2[nH]nc(-n3cccn3)c2c1
pIC50 [1]: 6.26

COc1ccc(F)cc1CNc1ccc2[nH]nc(C(=O)NCC(F)F)c2c1
pIC50 [1]: 5.07

CNC(=O)c1n[nH]c2ccc(NCc3cc(F)ccc3OCCF)cc12
pIC50 [1]: 6.70

COc1ccc(F)cc1CNc1ccc2[nH]nc(-c3ccc(F)cc3)c2c1
pIC50 [1]: 5.87

CNC(=O)c1n[nH]c2ccc(NCc3cc(F)ccc3S(C)(=O)=O)cc12
pIC50 [1]: 5.95

Fc1ccc(OCC(F)F)c(CNc2ccc3[nH]nc(-n4ccnn4)c3c2)c1
pIC50 [2]: 8.40 | pIC50 (MCF7): < 5.00 | pIC50 [3]: 8.52 | pIC50 (BaF3 [6]): 6.87 | pIC50 (KM12): 8.01 | pIC50 (BaF3 [7]): 6.88 | pIC50 [1]: 7.20 | pIC50 [4]: 7.21 | pIC50 [5]: 8.70

Fc1ccc(OCC(F)F)c(CNc2ccc3[nH]nc(-n4cncn4)c3c2)c1
pIC50 [2]: 8.70 | pIC50 (MCF7): < 5.00 | pIC50 [3]: 9.00 | pIC50 (BaF3 [6]): 7.19 | pIC50 (KM12): 8.24 | pIC50 (BaF3 [7]): 7.26 | pIC50 [1]: 7.72 | pIC50 [4]: 7.60 | pIC50 [5]: 9.00

CNC(=O)c1n[nH]c2ccc(NCc3cc(F)ccc3OC(F)F)cc12
pIC50 [1]: 6.42

COc1ccc(F)cc1CNc1ccc2[nH]nc(C(=O)N3CCC(O)C3)c2c1 (stereo unspecified)
pIC50 [1]: < 4.30

COc1ccc(F)cc1CNc1ccc2[nH]nc(C(=O)NC3CC3)c2c1
pIC50 [1]: 5.44

CNC(=O)c1n[nH]c2ccc(NCc3cc(F)ccc3OCC(F)F)cc12
pIC50 [2]: 8.52

Fc1ccc(OCC(F)F)c(CNc2ccc3[nH]nc(-c4cnoc4)c3c2)c1
pIC50 [3]: 8.30 | pIC50 [1]: 7.46 | pIC50 [4]: 7.31 | pIC50 [5]: 8.10

COc1ccc(F)cc1CNc1ccc2[nH]nc(-c3cccc(F)c3)c2c1
pIC50 [1]: 6.44

COc1ccc(F)cc1CNc1ccc2[nH]nc(-n3cc(C(F)(F)F)cn3)c2c1
pIC50 [1]: 5.24

COc1ccc(F)cc1CNc1ccc2[nH]nc(-c3cn[nH]c3)c2c1
pIC50 [1]: 6.96

COc1ccc(F)cc1CNc1ccc2[nH]nc(C(=O)N3CCC(F)(F)C3)c2c1
pIC50 [1]: 4.48

CNC(=O)c1n[nH]c2ccc(NCc3cc(F)ccc3OC)cc12
pIC50 [1]: 7.04

C[C@@H]1CCc2ncc(F)cc2[C@H]2CCCN2c2ccn3ncc(c3n2)C(=O)N1 [SELITRECTINIB]
pIC50 (MCF7): < 5.00 | pIC50 (BaF3 [6]): 6.95 | pIC50 (KM12): 8.17 | pIC50 (BaF3 [7]): 7.92
